# In ChEMBL document CHEMBL1909046, “DrugMatrix in vitro pharmacology data”:
# Target: T1, Alpha-2A adrenergic receptor (Homo sapiens, UniProt P08913); further: in other assays of this panel Not Active means under 50% inhibition at 10 µM
# T1 sequence (P08913 whole entry): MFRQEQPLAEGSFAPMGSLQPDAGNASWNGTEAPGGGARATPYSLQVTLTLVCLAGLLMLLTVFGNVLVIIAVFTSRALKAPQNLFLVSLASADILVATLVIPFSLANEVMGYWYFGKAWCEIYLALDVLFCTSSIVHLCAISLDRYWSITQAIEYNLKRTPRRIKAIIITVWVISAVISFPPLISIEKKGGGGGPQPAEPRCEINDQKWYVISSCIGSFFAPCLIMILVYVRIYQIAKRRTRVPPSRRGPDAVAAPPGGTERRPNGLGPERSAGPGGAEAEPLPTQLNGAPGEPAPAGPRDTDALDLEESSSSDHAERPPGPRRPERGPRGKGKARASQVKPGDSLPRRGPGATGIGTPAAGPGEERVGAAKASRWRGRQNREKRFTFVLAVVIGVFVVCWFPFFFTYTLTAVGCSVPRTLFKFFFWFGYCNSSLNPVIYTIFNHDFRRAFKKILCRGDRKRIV
# Format: cell membranes, Sf9, Membrane
# Details: read-out: IC50
row,Compound,IC50 [nM]
1,CC[C@H](C)[C@@H](CO[C@@H](Cc1ccccc1)C(=O)N[C@@H](CCS(C)(=O)=O)C(=O)OC(C)C)NC[C@@H](N)CS,432
2,CCN(CC)CCNC(=O)c1cc(Cl)c(N)cc1OC [METOCLOPRAMIDE],2720
3,CCOc1cc(N)c(Cl)cc1C(=O)NCC1CN(Cc2ccc(F)cc2)CCO1 (centres undefined) [MOSAPRIDE],3680

# Same assay, conditions: read-out: Ki
row,Compound,Ki [nM]
1,CC[C@H](C)[C@@H](CO[C@@H](Cc1ccccc1)C(=O)N[C@@H](CCS(C)(=O)=O)C(=O)OC(C)C)NC[C@@H](N)CS,162
2,CCN(CC)CCNC(=O)c1cc(Cl)c(N)cc1OC [METOCLOPRAMIDE],1020
3,CCOc1cc(N)c(Cl)cc1C(=O)NCC1CN(Cc2ccc(F)cc2)CCO1 (centres undefined) [MOSAPRIDE],1380

# Same assay, conditions: sf9
row,Compound,IC50
1,CC1(C)[C@H](C(=O)O)N2C(=O)C[C@H]2S1(=O)=O [SULBACTAM],Not Active
2,Nc1nc(N)c2nc(-c3ccccc3)c(N)nc2n1,Not Active

# Target: D(1A) dopamine receptor (Homo sapiens, UniProt P21728)
# Experiment: DRUGMATRIX: Dopamine D1 radioligand binding (ligand: [3H] SCH-23390)
# Format: cell membranes, CHO, Membrane
# Details: cho; Not Active = under 50% inhibition at 10 µM
# Sequence of D(1A) dopamine receptor (P21728 whole entry): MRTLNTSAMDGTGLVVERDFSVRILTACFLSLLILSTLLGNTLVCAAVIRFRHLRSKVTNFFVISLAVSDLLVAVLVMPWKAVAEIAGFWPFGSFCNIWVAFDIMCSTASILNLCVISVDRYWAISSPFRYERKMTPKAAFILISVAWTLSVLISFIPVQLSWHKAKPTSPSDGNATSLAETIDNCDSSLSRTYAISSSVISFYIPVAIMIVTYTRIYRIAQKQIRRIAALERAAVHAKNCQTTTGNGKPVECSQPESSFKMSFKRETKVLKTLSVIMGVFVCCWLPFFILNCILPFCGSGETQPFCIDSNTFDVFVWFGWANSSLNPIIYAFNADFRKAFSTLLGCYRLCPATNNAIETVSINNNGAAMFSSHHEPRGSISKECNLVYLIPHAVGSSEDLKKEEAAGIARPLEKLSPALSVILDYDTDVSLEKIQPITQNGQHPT
row,Compound,IC50
1,CC1(C)[C@H](C(=O)O)N2C(=O)C[C@H]2S1(=O)=O [SULBACTAM],Not Active
2,Nc1nc(N)c2nc(-c3ccccc3)c(N)nc2n1,Not Active
3,CC[C@H](C)[C@@H](CO[C@@H](Cc1ccccc1)C(=O)N[C@@H](CCS(C)(=O)=O)C(=O)OC(C)C)NC[C@@H](N)CS,Not Active
4,CCN(CC)CCNC(=O)c1cc(Cl)c(N)cc1OC [METOCLOPRAMIDE],Not Active
5,CCOc1cc(N)c(Cl)cc1C(=O)NCC1CN(Cc2ccc(F)cc2)CCO1 (centres undefined) [MOSAPRIDE],Not Active

# Target: D(3) dopamine receptor (Homo sapiens, UniProt P35462)
# Experiment: DRUGMATRIX: Dopamine D3 radioligand binding (ligand: [3H] Spiperone)
# Format: cell membranes, CHO, Membrane
# Details: cho
# Sequence of D(3) dopamine receptor (P35462 whole entry): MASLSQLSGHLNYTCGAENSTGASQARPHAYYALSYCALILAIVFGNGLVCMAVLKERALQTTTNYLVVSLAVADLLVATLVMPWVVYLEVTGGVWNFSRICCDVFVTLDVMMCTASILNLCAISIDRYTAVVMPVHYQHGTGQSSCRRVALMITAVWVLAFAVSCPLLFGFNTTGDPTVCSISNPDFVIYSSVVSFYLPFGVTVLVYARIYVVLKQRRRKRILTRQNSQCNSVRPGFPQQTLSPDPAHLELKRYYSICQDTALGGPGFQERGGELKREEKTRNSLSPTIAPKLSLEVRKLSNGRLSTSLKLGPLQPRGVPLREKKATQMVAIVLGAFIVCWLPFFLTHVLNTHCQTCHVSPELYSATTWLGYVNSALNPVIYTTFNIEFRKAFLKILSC
row,Compound,IC50
1,CC1(C)[C@H](C(=O)O)N2C(=O)C[C@H]2S1(=O)=O [SULBACTAM],Not Active
2,Nc1nc(N)c2nc(-c3ccccc3)c(N)nc2n1,Not Active
3,CCOc1cc(N)c(Cl)cc1C(=O)NCC1CN(Cc2ccc(F)cc2)CCO1 (centres undefined) [MOSAPRIDE],Not Active

# Same assay, conditions: read-out: IC50
row,Compound,IC50 [nM]
1,CC[C@H](C)[C@@H](CO[C@@H](Cc1ccccc1)C(=O)N[C@@H](CCS(C)(=O)=O)C(=O)OC(C)C)NC[C@@H](N)CS,28
2,CCN(CC)CCNC(=O)c1cc(Cl)c(N)cc1OC [METOCLOPRAMIDE],200

# Same assay, conditions: read-out: Ki
row,Compound,Ki [nM]
1,CC[C@H](C)[C@@H](CO[C@@H](Cc1ccccc1)C(=O)N[C@@H](CCS(C)(=O)=O)C(=O)OC(C)C)NC[C@@H](N)CS,9.63
2,CCN(CC)CCNC(=O)c1cc(Cl)c(N)cc1OC [METOCLOPRAMIDE],68

# Target: Cytochrome P450 2E1 (Homo sapiens, UniProt P05181); further: in other assays of this panel Not Active means under 50% inhibition at 10 µM
# Details: bti-tn-5b1-4
# Sequence of Cytochrome P450 2E1 (P05181 whole entry): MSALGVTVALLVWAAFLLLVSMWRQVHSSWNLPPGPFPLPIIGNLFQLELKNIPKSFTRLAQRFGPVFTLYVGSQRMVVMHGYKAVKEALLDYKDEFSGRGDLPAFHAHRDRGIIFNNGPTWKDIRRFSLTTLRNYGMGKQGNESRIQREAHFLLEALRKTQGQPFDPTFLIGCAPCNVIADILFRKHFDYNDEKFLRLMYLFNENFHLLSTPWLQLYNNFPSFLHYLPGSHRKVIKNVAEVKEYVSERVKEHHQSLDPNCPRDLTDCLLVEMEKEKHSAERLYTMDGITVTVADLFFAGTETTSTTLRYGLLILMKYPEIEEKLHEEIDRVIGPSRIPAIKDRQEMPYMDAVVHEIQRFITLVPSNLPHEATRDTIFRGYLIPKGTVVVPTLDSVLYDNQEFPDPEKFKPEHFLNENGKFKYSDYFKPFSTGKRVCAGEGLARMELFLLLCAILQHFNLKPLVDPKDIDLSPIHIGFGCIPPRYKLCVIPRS
Compound,IC50,Ki
CC1(C)[C@H](C(=O)O)N2C(=O)C[C@H]2S1(=O)=O [SULBACTAM],Not Active,Not Active
Nc1nc(N)c2nc(-c3ccccc3)c(N)nc2n1,Not Active,Not Active
CC[C@H](C)[C@@H](CO[C@@H](Cc1ccccc1)C(=O)N[C@@H](CCS(C)(=O)=O)C(=O)OC(C)C)NC[C@@H](N)CS,Not Active,Not Active
CCN(CC)CCNC(=O)c1cc(Cl)c(N)cc1OC [METOCLOPRAMIDE],Not Active,Not Active
CCOc1cc(N)c(Cl)cc1C(=O)NCC1CN(Cc2ccc(F)cc2)CCO1 (centres undefined) [MOSAPRIDE],Not Active,Not Active

# Target: T2, Estrogen receptor (Homo sapiens, UniProt P03372)
# T2 sequence (P03372 whole entry): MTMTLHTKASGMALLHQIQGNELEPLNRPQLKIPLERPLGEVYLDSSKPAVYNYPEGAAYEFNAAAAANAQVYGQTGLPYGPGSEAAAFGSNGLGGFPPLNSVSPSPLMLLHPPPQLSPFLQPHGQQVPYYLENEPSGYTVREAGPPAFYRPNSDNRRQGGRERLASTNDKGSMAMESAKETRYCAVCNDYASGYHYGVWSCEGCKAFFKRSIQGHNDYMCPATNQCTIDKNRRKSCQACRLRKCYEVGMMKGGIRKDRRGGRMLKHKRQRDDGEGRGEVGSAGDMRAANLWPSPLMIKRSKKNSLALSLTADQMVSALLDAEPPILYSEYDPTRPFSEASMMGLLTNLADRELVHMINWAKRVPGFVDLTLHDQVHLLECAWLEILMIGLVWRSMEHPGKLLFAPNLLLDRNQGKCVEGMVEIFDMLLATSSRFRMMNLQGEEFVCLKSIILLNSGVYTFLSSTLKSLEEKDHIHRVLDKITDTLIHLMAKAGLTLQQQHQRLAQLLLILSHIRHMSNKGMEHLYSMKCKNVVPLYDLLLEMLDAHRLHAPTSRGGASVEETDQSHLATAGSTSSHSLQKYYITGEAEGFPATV
# Details: sf9
row,Compound,IC50
1,CC1(C)[C@H](C(=O)O)N2C(=O)C[C@H]2S1(=O)=O [SULBACTAM],Not Active
2,Nc1nc(N)c2nc(-c3ccccc3)c(N)nc2n1,Not Active
3,CC[C@H](C)[C@@H](CO[C@@H](Cc1ccccc1)C(=O)N[C@@H](CCS(C)(=O)=O)C(=O)OC(C)C)NC[C@@H](N)CS,Not Active
4,CCN(CC)CCNC(=O)c1cc(Cl)c(N)cc1OC [METOCLOPRAMIDE],Not Active
5,CCOc1cc(N)c(Cl)cc1C(=O)NCC1CN(Cc2ccc(F)cc2)CCO1 (centres undefined) [MOSAPRIDE],Not Active

# Target: Estrogen receptor beta (Homo sapiens, UniProt Q92731); further: in other assays of this panel Not Active means under 50% inhibition at 10 µM
# Details: sf9
# Sequence of Estrogen receptor beta (Q92731 whole entry): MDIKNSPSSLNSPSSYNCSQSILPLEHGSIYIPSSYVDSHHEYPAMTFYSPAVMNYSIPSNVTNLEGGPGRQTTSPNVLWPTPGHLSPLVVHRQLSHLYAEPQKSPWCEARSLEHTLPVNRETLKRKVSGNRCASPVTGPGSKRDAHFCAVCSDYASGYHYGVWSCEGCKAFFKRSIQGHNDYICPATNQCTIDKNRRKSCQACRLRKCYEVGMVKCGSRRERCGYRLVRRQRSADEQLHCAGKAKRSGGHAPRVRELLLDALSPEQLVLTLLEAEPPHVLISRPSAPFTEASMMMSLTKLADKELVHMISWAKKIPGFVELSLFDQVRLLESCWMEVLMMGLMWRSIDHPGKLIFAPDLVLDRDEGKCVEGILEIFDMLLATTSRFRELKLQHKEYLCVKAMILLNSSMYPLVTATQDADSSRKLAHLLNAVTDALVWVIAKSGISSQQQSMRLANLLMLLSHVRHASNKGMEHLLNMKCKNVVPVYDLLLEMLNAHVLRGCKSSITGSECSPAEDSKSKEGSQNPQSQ
row,Compound,IC50
1,CC1(C)[C@H](C(=O)O)N2C(=O)C[C@H]2S1(=O)=O [SULBACTAM],Not Active
2,Nc1nc(N)c2nc(-c3ccccc3)c(N)nc2n1,Not Active
3,CC[C@H](C)[C@@H](CO[C@@H](Cc1ccccc1)C(=O)N[C@@H](CCS(C)(=O)=O)C(=O)OC(C)C)NC[C@@H](N)CS,Not Active
4,CCN(CC)CCNC(=O)c1cc(Cl)c(N)cc1OC [METOCLOPRAMIDE],Not Active
5,CCOc1cc(N)c(Cl)cc1C(=O)NCC1CN(Cc2ccc(F)cc2)CCO1 (centres undefined) [MOSAPRIDE],Not Active

# Target: T3, Glucocorticoid receptor (Homo sapiens, UniProt P04150); further: in other assays of this panel Not Active means under 50% inhibition at 10 µM
# T3 sequence (P04150 whole entry): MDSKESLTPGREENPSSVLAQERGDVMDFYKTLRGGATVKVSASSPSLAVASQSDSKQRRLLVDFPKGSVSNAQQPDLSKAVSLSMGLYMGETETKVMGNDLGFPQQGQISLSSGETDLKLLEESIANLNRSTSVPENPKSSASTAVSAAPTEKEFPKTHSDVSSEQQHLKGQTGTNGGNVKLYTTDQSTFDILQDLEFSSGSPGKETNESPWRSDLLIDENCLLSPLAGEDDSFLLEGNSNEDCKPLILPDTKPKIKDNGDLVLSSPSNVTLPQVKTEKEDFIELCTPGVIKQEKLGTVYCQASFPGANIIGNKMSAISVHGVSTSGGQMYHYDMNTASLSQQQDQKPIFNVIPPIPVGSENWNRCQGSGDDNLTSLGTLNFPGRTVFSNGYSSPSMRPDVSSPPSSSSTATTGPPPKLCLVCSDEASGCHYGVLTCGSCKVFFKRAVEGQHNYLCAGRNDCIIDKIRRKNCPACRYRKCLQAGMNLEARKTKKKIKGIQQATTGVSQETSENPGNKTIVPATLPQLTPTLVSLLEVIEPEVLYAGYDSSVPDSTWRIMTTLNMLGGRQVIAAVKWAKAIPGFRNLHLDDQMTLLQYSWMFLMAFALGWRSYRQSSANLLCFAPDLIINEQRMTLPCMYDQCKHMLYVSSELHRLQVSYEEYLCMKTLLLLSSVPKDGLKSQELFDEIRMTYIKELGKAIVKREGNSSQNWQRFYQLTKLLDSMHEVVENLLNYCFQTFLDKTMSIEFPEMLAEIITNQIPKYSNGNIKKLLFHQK
# Details: hela s3
row,Compound,IC50
1,CC1(C)[C@H](C(=O)O)N2C(=O)C[C@H]2S1(=O)=O [SULBACTAM],Not Active
2,Nc1nc(N)c2nc(-c3ccccc3)c(N)nc2n1,Not Active
3,CC[C@H](C)[C@@H](CO[C@@H](Cc1ccccc1)C(=O)N[C@@H](CCS(C)(=O)=O)C(=O)OC(C)C)NC[C@@H](N)CS,Not Active
4,CCOc1cc(N)c(Cl)cc1C(=O)NCC1CN(Cc2ccc(F)cc2)CCO1 (centres undefined) [MOSAPRIDE],Not Active
